Patent US9649295B2, “Chemical inhibitors of soluble adenylyl cyclase (sAC)” (Cornell Research Foundation, Inc., priority 2004, dated 2017)
“Also recorded” adds a separate entry of the source.

Key:
[1] = target: catalytic portion of the sAC-like adenylyl cyclase from Candida albicans (fragment JR3) (Candida albicans, UniProt A0A1D8PR83); assay: biochemical
Description: . FIG. 17A illustrates the bicarbonate dependence of the JR3 fragment; […];

[2] = system: Rap1 activation; assay: NGF induced Rap1 activation in PC12 cells; format: cell-based; conditions: 15 minutes, KH7 50 μM
Procedure: FIG. 18 illustrates that NGF induced Rap1 activation is blocked by KH7 and rescued by membrane permeable cAMP. PC12 cells were stimulated with or without nerve growth factor (NGF) for 15 minutes in the presence or absence of KH7 (50 μM) and 1 mM 8Br-cAMP.

[3] = glucose tolerance test in C57BL/6 mice; format: in vivo, mouse
Procedure: C57B1/6 adult male mice were maintained on a 12 hour light/dark cycle, with free access to water and standard laboratory chow (Research Animal Resource Center, Weill Medical College of Cornell University). Animals were treated in accordance with our institutions guidelines. After a 14-16 hour overnight fast with free access to water, blood was removed from the tail vein for glucose (Hemocue B-Glucose Microcuvette and Analyzer; Hemocue, Inc., Lake Forest, Calif.) and insulin (Rat/Mouse Insulin ELISA Kit; Linco Research) measurements. Mice then received an i.p injection of 100 mM KH7 (100 μmoles/kg) or vehicle control. Twenty minutes later, both groups were injected i.p. with 1 g/kg glucose (20% solution). Blood samples were taken from the tail vein at times indicated, and glucose and insulin were quantitated according to manufacturer's instructions.

Chain of catalytic portion of the sAC-like adenylyl cyclase from Candida albicans (fragment JR3) (A0A1D8PR83 entry or part of it): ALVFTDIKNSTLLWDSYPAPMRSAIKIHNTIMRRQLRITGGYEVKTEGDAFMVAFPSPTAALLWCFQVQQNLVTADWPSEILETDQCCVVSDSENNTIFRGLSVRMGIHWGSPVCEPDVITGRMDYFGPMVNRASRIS

Q: With CC(Sc1nc2ccccc2[nH]1)C(=O)N/N=C/c1cc(Br)ccc1O (centres unmarked) [KH7] as the compound, how does the IC50 [1] read?
A: The IC50 was about 23 µM.

Q: And the “effect on NGF induced Rap1 activation” value [2]?
A: Its value is “block NGF induced Rap1 activation; also recorded: blocked”.

Q: What about the “glucose-induced serum insulin release” value ([3]; 100 μmoles/kg KH7 i.p., 1 g/kg glucose i.p.) of the same compound?
A: Its value is “no statistically significant glucose-induced insulin release was detected”.

Q: What about the glucose tolerance ([3]; 100 μmoles/kg [49 mg/kg] KH7 i.p., 1 g/kg glucose i.p.) of the same compound?
A: Its glucose tolerance is “glucose intolerant”.

Q: What about the “glucose tolerance test one week after injection” value ([3]; one week after KH7, no further drug, n=2) of the same compound?
A: The value was “normal glucose tolerance and insulin response”.
